Reference: US20110229521A1, “NUTRITIONAL SUPPORT OF THE IMMUNE SYSTEM DURING ANTI-CANCER TREATMENT” (priority 2008, published 2011)

Legend:
[1] = Body weight, haematological evaluation and flow cytometry of tumor-bearing mice on supplemented diets with chemotherapy (Example 2); assay type: in vivo, C57BL/6 (H-2b) mice; settings: for Global lymphocyte population: following chemotherapy
Experimental: (§1) Mice. […] The animals were distributed into 7 different group diets. There was a control group that received the diet AIN 93 for adult rodents (maintenance). […] Control animals without chemotherapeutic treatment were run in parallel for all tested diets. Body weight was assessed every two days. Blood samples were obtained at day 2, 4 and 10 after the chemo-treatment and at sacrifice (14 or 28 days). An autopsy was performed and tumor mass was assessed.
Haematological evaluation.
Flow cytometric analysis.

MCA-OVA tumor cells = test: Tumor growth evaluation by caliper, supplemented diets with or without chemotherapy (Example 2); assay type: in vivo, C57BL/6 (H-2b) mice
Experimental: as §1
(§2) Cancer Cell Lines. Methylcholanthrene (MCA) induced sarcoma cell line expressing the exogenous antigen ovalbumin (OVA) was grown in DMEM or RPMI 1640 supplemented with 2 mM L-glutamine, 10 mM HEPES, 20 μM 2-mercaptoethanol, 150 U/mL streptomycin, 200 U/mL penicillin, and 10% heat-inactivated FBS. 1×10 ^6 tumor cells were injected in the flank of the mice 6 days prior to the chemotherapy.
Tumor growth evaluation. Growth of tumors was monitored every 2 d by using calipers, and tumor volume was calculated by using the formula length×width×width×0.52 mm^3.

[2] = tested on: Methylcholanthrene (MCA) induced sarcoma cell line expressing the exogenous antigen for ovalbumin (OVA); test: Tumor growth evaluation by caliper after chemotherapy (Example 1); assay type: in vivo, C57BL/6 (H-2b) mice
Experimental: as §2, with “antigen for” for “antigen”, “were” for “was”, “1×10^6” for “1×10 ^6”
Growth of tumors was monitored every 2 d by using calipers, and tumor volume was calculated by using the formula length×width×width×0.52 mm^3.

[3] = Body weight, haematological evaluation and flow cytometry of tumor-bearing mice after chemotherapy (Example 1)
Experimental: Mice. Inbred eight-week-old C57BL/6 (H-2b) mice were used in the experiments. Mice were inoculated subcutaneously (s.c.) on the left flank with 1×10 ^6 tumor cells, and tumor growth was monitored every 2 days by caliper measurement. 6 days after the tumor inoculation the animals were treated either with oxaliplatin or doxorubicin. Tumor growth was monitored every two days after the chemotherapeutic treatment and they were sacrificed after two weeks of tumor implantation. Some experiments were carried out until 28 days post-chemo to better assess tumor growth.
Body weight was assessed every two days until sacrifice.
Blood samples were obtained at day 2 and 4 after the chemo-treatment, at day 10 and at sacrifice (14 or 28 days). An autopsy was performed and tumoral mass was assessed.
Haematological evaluation. Red blood cell enumeration, hemoglobin and hematocrit were measured at 2, 4, 10, 14 and 28 days.
White blood cell counts and differential leukocyte formulation were examined at the same time points. Blood samples were used in addition to determine immune cell populations.
Flow cytometric analysis. Cell subset analysis of the CD11c^+, CD11b^+Gr-1^+ and CD11b^+Gr-1^−, CD14^+, CD19^+, CD16^+, CD56^+, CD3^+, CD8^+, CD4^+ was performed. The battery of antibodies used permitted the evaluation of: B and T cell subsets NK, NKT cells, macrophages, dendritic cells, granulocytes.

γδ T cells = settings: acid hydrolysed, diluted in media; peripheral blood mononuclear cells; cited from earlier work

Structure (SMILES): N=C(N)NCCC[C@H](N)C(=O)O [arginine, L-arginine]
- loss of CD3+ cells ([1]; after chemotherapy, supplemented diet): partially modulated
- immune cell population / concentration ([1]; second phase (tumor-induced toxicity)): increase immune cell concentration
- fall of erythrocytes after chemotherapy ([1]; supplemented diet, days 6 to 10 post-chemo, FIG. 3): prevented the marked fall of erythrocytes
- tumor size (MCA-OVA tumor cells; combination with the chemotherapy treatment versus chemotherapy alone, FIG. 4): further reduced the tumor size
- progression of the implanted tumor (MCA-OVA tumor cells; supplemented diet compared to other groups): delayed progression

Structure (SMILES): NC(=O)CC[C@H](N)C(=O)O [glutamine]
- Global lymphocyte population ([1]; supplemented diet): less depressed following chemotherapy

Structure (SMILES): O=C1[O][Pt]2([NH][C@@H]3CCCC[C@H]3[NH]2)[O]C1=O [oxaliplatin]
- tumor growth rate versus control (no chemotherapy) ([2]; treatment group oxa-10, FIG. 2, divergence at day 14): slower rate than the control
- tumor growth rate versus control (no chemotherapy) ([2]; treatment group oxa-12.5, FIG. 2, divergence at day 14): slower rate than the control
- white blood cell counts [3]: higher that the baseline counts

Structure (SMILES): NC(=O)NCCC[C@H](N)C(=O)O [citrulline, L-citrulline]
- Global lymphocyte population ([1]; supplemented diet): less depressed following chemotherapy

Structure (SMILES): CCNC(=O)CC[C@H](N)C(=O)O [L-theanine]
- expansion of γδ T cells (γδ T cells): 15 fold
